Patent US20260216057A1, “PHARMACEUTICAL COMPOSITIONS FOR HERPES VIRUS” (priority 2022, published 2026)

Tests used:
[1] = Example 7: Compound 1 aqueous suspension SC PK study in rat; assay type: in vivo, male Sprague Dawley rats; settings: aqueous suspension (Form A), 10 mg/kg
Experimental: The LC-MS methodology and conditions used to analyse the helicase-primase inhibitor Compound 1 in plasma samples from the sub-cutaneous injection PK studies (Examples 7 and 10-12) are described in Table 3 and Table 4. An aqueous suspension of crystalline Compound 1 (Form A) was prepared in a 0.9% NaCl+0.5% polysorbate 80 vehicle at a concentration of 3.0 mg/mL as described in Example 2. The suspension was then dosed to male SD rats at 10 mg/kg according to the Example 2 animal dosing method.

[2] = Example 13: Compound 1 IV PK study in monkey; assay type: in vivo, male cynomolgus monkeys; settings: male, cynomolgus, plasma, 0.25 mg/kg, read-out: Monkey t1/2 (converted)
Experimental: The LC-MS methodology and conditions used to analyse Compound 1 in plasma samples from the intra-venous injection PK studies (Example 13) are described in Tables 5 to 7. A 0.25 mg/mL solution of Compound 1 in 10% DMSO, 10% Solutol HS15 and 80% Saline was prepared as follows: • 1) A stock solution of Compound 1 in DMSO was prepared. • 2) An equal volume of the Compound 1 stock solution and Solutol HS15 were combined and mixed. • 3) The above solution was diluted with normal saline to reach the target concentration. The final formulation was a clear solution. Male non-naïve Cyno Monkeys with were used for the monkey PK study. The animals had free access to food and water. The prepared solution was administered via intravenous injection to each animal group (n=3) to achieve a 0.25 mg/kg dose. At each time point, approximately 0.5 mL whole blood was collected into K2EDTA tubes. Blood samples were put on to ice and centrifuged at 2000 g for 5 min to obtain plasma sample within 15 minutes. Plasma samples were stored at approximately −70° C. until analyzed by LC-MS.

[3] = Example 2: pritelivir aqueous suspension SC PK study in rat at lower dose; assay type: in vivo, male Sprague Dawley rats; settings: aqueous suspension (dihydrate), 10 mg/kg
Experimental: The LC-MS methodology and conditions used to analyse pritelivir in plasma samples from the PK studies described in Examples 1 to 5 are provided in Table 1.
An aqueous suspension of crystalline pritelivir free base (dihydrate) in a 0.9% NaCl+0.5% polysorbate 80 vehicle at a concentration of 3.0 mg/mL was prepared as follows: • 1) Vehicle (0.9% w/w NaCl and 0.5% w/w polysorbate 80) was prepared by dissolving NaCl and polysorbate 80 in water. • 2) Appropriate amount of crystalline pritelivir free base (dihydrate) was weighed and added to the vehicle. • 3) Mixture was stirred for 15 minutes, then vortexed for 1 minute and then sonicated for 10 minutes. • 4) The final dosing formulation was a homogenous white cloudy suspension.
Male SD rats with 230-250 g body weight, ages 6-8 weeks were used for the rat PK study. The animals had free access to food and water. The prepared suspension was administered via subcutaneous injection to each animal group (n=3) with a dosing volume of 3.33 mL/kg to achieve a 10 mg/kg dose.
At each time point, approximately 200 μL whole blood was collected via the jugular vein into K2EDTA tubes. Blood samples were put on to ice and centrifuged at 2000 g for 5 min to obtain plasma sample within 15 minutes. Plasma samples were stored at approximately −70° C. until analyzed by LC-MS.

[4] = Example 14: pritelivir SC PK study in dog (solution, micro-suspension, nano-suspension); assay type: in vivo, male non-naïve Beagle dogs; settings: 10 mg/kg
Experimental: The LC-MS methodology and conditions used to analyse pritelivir in dog plasma samples from the PK study described in Example 14 are provided in Table 2.
A solution of pritelivir in 90% NMP (Sigma) and 10% Solutol HS15 (BASF) at a concentration of 100 mg/mL was prepared as follows: • 1) Around 460 mg of crystalline pritelivir free base sesquihydrate (based on assay) was weighed and added to ~3.9 mL of NMP. The mixture was stirred for 10 mins. • 2) After the pritelivir had dissolved, Solutol HS15 (−0.4 mL) was added to the solution and mixed for another 2 mins. • 3) The final dosing formulation was a clear solution.
An aqueous micro-suspension of crystalline pritelivir free base (sesquihydrate) in a 2 mg/mL polysorbate 80 (Tween 80) and 5 mg/mL Methocel A4M vehicle at a concentration of 100 mg/mL was prepared as follows: • 1) Crystalline pritelivir free base (sesquihydrate) was jet milled [grinding pressure […]] to obtain microparticles (Dv90<10 um). • 2) Around 460 mg of jet milled material (based on assay) were then dispersed in a 2 mg/mL polysorbate 80 (Tween 80) and 5 mg/ml Methocel A4M solution (−4.4 mL) to obtain a 100 mg/ml suspension. • 3) The mixture was stirred for 10 minutes. • 4) The final dosing formulation was a homogenous white cloudy suspension.
An aqueous nano-suspension of crystalline pritelivir free base (sesquihydrate) in a 10 mg/mL NaCMC, 2 mg/mL polysorbate 80 (Tween 80) and 50 mg/mL mannitol vehicle at a concentration of 100 mg/mL was prepared as follows: • 1) 10 mg/mL crystalline pritelivir free base (sesquihydrate) was dispersed into a solution of 1 mg/mL NaCMC+0.2 mg/mL polysorbate 80 (Tween 80) and 5 mg/mL mannitol. • 2) The suspension was subjected to high pressure homogenizer (around 20 cycles at 600 bar followed with 130 cycles at 900 bar) until particle size was around 1 μm. • 3) After particle size reduction, the suspension was subjected to freeze drying to obtain a freeze-dried powder. • 4) The freeze-dried powder was reconstituted with water to obtain a 100 mg/ml suspension. • 5) The suspension was wet milled (10:1 0.1 mm zirconium oxide milling beads: pritelivir) at 700 rpm for 500 minutes to reduce particle size to nanosized particles (Dv90<500 nm). • 6) This nanosuspension was subjected to freeze drying to obtain a freeze-dried powder. • 7) Appropriate amounts of freeze-dried powder (based on assay) were weighed and added to water to obtain a 100 mg/ml suspension. • 8) The mixture was stirred for 10 minutes. • 9) The final dosing formulation was a homogenous white cloudy suspension.
Male non-naïve beagles were used for the dog PK study. […]
At each time point, approximately 0.5 mL of whole blood was collected into K2EDTA tubes. […] Plasma samples were stored at approximately −70° C. until analyzed by LC-MS.

Row | SMILES | prolonged exposure out to (length of the study) [1] | half-life [2] [h] | prolonged exposure out to (length of the study) [3] | plasma exposure after SC administration ([4]; 0.1 mL/kg, all three formulations (solution, microsuspension, nanosuspension; 100 mg/mL)) | plasma concentrations, microsuspension compared with nanosuspension ([4]; early time points (up to 234 hr)) | plasma concentration levels of the solution formulation compared with the suspensions ([4]; solution in 90% NMP/10% Solutol HS15, early time points) | adverse reactions at the injection sites ([4]; three formulations)
1 | Cc1nc(N2CCCN(c3ccc(-c4cc(F)ccc4F)cc3)C2=O)sc1S(N)(=O)=O [Compound 1, 2-(3-(2′,5′-difluoro-[1,1′-biphenyl]-4-yl)-2-oxotetrahydropyrimidin-1(2H)-yl)-4-methylthiazole-5-sulfonamide] | at least 144 hours | 49.6 | – | – | – | – | –
2 | Cc1nc(N(C)C(=O)Cc2ccc(-c3ccccn3)cc2)sc1S(N)(=O)=O [pritelivir, N-methyl-N-(4-methyl-5-sulfamoyl-1,3-thiazol-2-yl)-2-[4-(pyridin-2-yl)phenyl]acetamide] | – | – | at least 144 hours | Prolonged exposure was achieved | higher plasma concentrations of pritelivir were obtained from the microsuspension | highest plasma concentration levels at the early time points | no adverse reactions were observed
